For this assay, the target named is T1, purified porcine tubulin (Sus scrofa, UniProt P02550+P02554).
T1 construct: purchased Cytoskeleton, Denver, CO, USA BK006P
In words: Tubulin polymerization assay. It is filed as biochemical. As to conditions: 10 µM, absorbance at 340 nm, 35°C. How it is done:
A tubulin polymerization assay kit (part# BK006P, Cytoskeleton, Denver, CO, USA) was used to address the direct effects of chemical compounds on tubulin polymerization dynamics. A porcine >99% pure tubulin preparation (3 mg/ml) free of microtubule-associated proteins in 80 mM PIPES pH 6.9, 2 mM MgCl2, 0.5 mM EGTA, 1 mM GTP, and 10.2% glycerol was incubated with Formula A-1 (100 µM), Formula A-2(100 µM), paclitaxel (10 µM), or buffer. Microtubule polymerization was initiated by tubulin addition; changes in microtubule turbidity were measured kinetically at 340 nm at 35°C (EnSpire Multimode Plate Reader 2300, PerkinElmer).
To determine whether the influence of compounds of Formula A-1 and Formula A-2 on microtubule formation was due to on-target activity, the direct effect of chalcone compounds of Formula A on tubulin polymerization rates was examined by incubation of purified porcine tubulin with Formula A-1 or Formula A-2 and comparison of the results with those of paclitaxel, a well-established microtubule-stabilizing agent. Microtubule formation was measured kinetically at an absorbance of 340 nm.

T1 sequence (P02550 whole entry): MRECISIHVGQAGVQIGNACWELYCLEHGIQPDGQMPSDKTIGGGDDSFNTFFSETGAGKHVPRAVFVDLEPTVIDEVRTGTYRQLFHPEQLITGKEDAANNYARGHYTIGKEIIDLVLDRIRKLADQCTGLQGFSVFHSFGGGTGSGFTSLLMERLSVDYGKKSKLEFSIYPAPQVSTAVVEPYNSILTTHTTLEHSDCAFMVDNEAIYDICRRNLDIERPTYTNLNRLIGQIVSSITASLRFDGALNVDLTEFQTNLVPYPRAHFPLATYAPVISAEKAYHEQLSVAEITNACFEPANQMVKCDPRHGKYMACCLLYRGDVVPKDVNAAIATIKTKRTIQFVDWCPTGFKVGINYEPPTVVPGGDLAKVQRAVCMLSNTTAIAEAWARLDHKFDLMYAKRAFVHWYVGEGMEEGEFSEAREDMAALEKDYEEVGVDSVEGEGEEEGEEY
T1 sequence (P02554 whole entry): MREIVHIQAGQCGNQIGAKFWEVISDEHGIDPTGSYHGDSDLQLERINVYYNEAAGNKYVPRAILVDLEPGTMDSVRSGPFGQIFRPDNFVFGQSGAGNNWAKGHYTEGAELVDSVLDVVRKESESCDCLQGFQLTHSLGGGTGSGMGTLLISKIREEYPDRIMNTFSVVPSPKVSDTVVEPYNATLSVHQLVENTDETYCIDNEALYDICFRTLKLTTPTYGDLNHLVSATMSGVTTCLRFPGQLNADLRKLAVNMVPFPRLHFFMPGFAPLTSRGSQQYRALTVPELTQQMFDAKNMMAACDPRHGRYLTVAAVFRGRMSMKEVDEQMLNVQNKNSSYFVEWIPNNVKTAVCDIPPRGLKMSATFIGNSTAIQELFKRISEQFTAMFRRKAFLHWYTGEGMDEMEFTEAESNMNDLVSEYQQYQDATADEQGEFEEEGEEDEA

Turning to `CC(=O)O[C@H]1C(=O)[C@@]2(C)[C@H]([C@H](OC(=O)c3ccccc3)[C@]3(O)C[C@H](OC(=O)[C@H](O)[C@@H](NC(=O)c4ccccc4)c4ccccc4)C(C)=C1C3(C)C)[C@]1(OC(C)=O)CO[C@@H]1C[C@@H]2O` [paclitaxel], the tubulin polymerization entry was “the kinetics of tubulin polymerization is enhanced and the polymerization equilibrium shifts towards polymerized tubulin”.

For the origin of these results see patent EP4417201A1, “PHARMACEUTICAL COMPOSITIONS FOR USE IN CANCER TREATMENT” (Robert Bosch Gesellschaft für medizinische Forschung mbH, priority 2023, dated 2024).
